# In ChEMBL document CHEMBL1201862, “PubChem BioAssay data set” (2004):
#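 Compound exposure: 48 hours, 5 concentrations, 96-well plates. Here, GI50 denotes the concentration required for 50% inhibition of growth.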 The source made the active and inactive calls. Rule as the data show it: active = GI50 up to about 1.1 µM and inactive = higher.
# Key:
# Assay in all cases: NCI anticancer screen, dose series, 48 h
# 786-0 = system: 786-0
# A498 = system: A498
# A549 = system: A549
# ACHN = system: ACHN
# CAKI-1 = system: CAKI-1
# CCRF-CEM = system: CCRF-CEM
# COLO 205 = system: COLO 205
# DLD-1 = system: DLD-1
# DMS-114 = system: DMS-114
# DMS-273 = system: DMS-273
# EKVX = system: EKVX
# HCC 2998 = system: HCC 2998
# HCT-15 = system: HCT-15
# HL-60 = system: HL-60
# HOP-62 = system: HOP-62
# HT-29 = system: HT-29
# IGROV-1 = system: IGROV-1
# K562 = system: K562
# KM-20L2 = system: KM-20L2
# KM12 = system: KM12
# LOX IMVI = system: LOX IMVI
# LXFL 529 = system: LXFL 529
# M14 = system: M14
# M19-MEL = system: M19-MEL
# MOLT-4 = system: MOLT-4
# Malme-3M = system: Malme-3M
# NCI-H226 = system: NCI-H226
# NCI-H23 = system: NCI-H23
# NCI-H460 = system: NCI-H460
# NCI-H522 = system: NCI-H522
# OVCAR-3 = system: OVCAR-3
# OVCAR-4 = system: OVCAR-4
# OVCAR-5 = system: OVCAR-5
# OVCAR-8 = system: OVCAR-8
# RPMI-8226 = system: RPMI-8226
# RXF 393 = system: RXF 393
# SF-268 = system: SF-268
# SF-295 = system: SF-295
# SF-539 = system: SF-539
# SK-MEL-28 = system: SK-MEL-28
# SK-MEL-2 = system: SK-MEL-2
# SK-MEL-5 = system: SK-MEL-5
# SK-OV-3 = system: SK-OV-3
# SN12C = system: SN12C
# SNB-19 = system: SNB-19
# SNB-75 = system: SNB-75
# SNB-78 = system: SNB-78
# SW-620 = system: SW-620
# TK-10 = system: TK-10
# UACC-257 = system: UACC-257
# UACC-62 = system: UACC-62
# UO-31 = system: UO-31
# XF498 = system: XF498
# HCT-116 = system: HCT-116
# HOP-92 = system: HOP-92
# SR = system: SR
# U-251 = system: U-251
structure (smiles),measurement,setting,value
COc1cccc(C2=NC(C(C)C)CO2)c1 (stereo unspecified),GI50,786-0,> 100 µM (inactive)
same,GI50,A498,> 100 µM (inactive)
same,GI50,A549,> 100 µM (inactive)
same,GI50,ACHN,> 100 µM (inactive)
same,GI50,CAKI-1,> 100 µM (inactive)
same,GI50,CCRF-CEM,> 100 µM (inactive)
same,GI50,COLO 205,> 100 µM (inactive)
same,GI50,DLD-1,> 100 µM (inactive)
same,GI50,DMS-114,> 100 µM (inactive)
same,GI50,DMS-273,> 100 µM (inactive)
same,GI50,EKVX,> 100 µM (inactive)
same,GI50,HCC 2998,> 100 µM (inactive)
same,GI50,HCT-15,> 100 µM
same,GI50,HL-60,> 100 µM (inactive)
same,GI50,HOP-62,> 100 µM (inactive)
same,GI50,HT-29,> 100 µM (inactive)
same,GI50,IGROV-1,> 100 µM (inactive)
same,GI50,K562,> 100 µM (inactive)
same,GI50,KM-20L2,> 100 µM (inactive)
same,GI50,KM12,> 100 µM (inactive)
same,GI50,LOX IMVI,> 100 µM (inactive)
same,GI50,LXFL 529,> 100 µM (inactive)
same,GI50,M14,> 100 µM (inactive)
same,GI50,M19-MEL,> 100 µM (inactive)
same,GI50,MOLT-4,> 100 µM (inactive)
same,GI50,Malme-3M,> 100 µM (inactive)
same,GI50,NCI-H226,> 100 µM (inactive)
same,GI50,NCI-H23,> 100 µM (inactive)
same,GI50,NCI-H460,> 100 µM (inactive)
same,GI50,NCI-H522,> 100 µM (inactive)
same,GI50,OVCAR-3,> 100 µM (inactive)
same,GI50,OVCAR-4,> 100 µM (inactive)
same,GI50,OVCAR-5,> 100 µM (inactive)
same,GI50,OVCAR-8,> 100 µM (inactive)
same,GI50,RPMI-8226,> 100 µM (inactive)
same,GI50,RXF 393,> 100 µM (inactive)
same,GI50,SF-268,> 100 µM (inactive)
same,GI50,SF-295,> 100 µM (inactive)
same,GI50,SF-539,> 100 µM (inactive)
same,GI50,SK-MEL-28,> 100 µM (inactive)
same,GI50,SK-MEL-2,> 100 µM (inactive)
same,GI50,SK-MEL-5,> 100 µM (inactive)
same,GI50,SK-OV-3,> 100 µM (inactive)
same,GI50,SN12C,> 100 µM (inactive)
same,GI50,SNB-19,> 100 µM (inactive)
same,GI50,SNB-75,> 100 µM (inactive)
same,GI50,SNB-78,> 100 µM (inactive)
same,GI50,SW-620,> 100 µM (inactive)
same,GI50,TK-10,> 100 µM (inactive)
same,GI50,UACC-257,> 100 µM (inactive)
same,GI50,UACC-62,> 100 µM (inactive)
same,GI50,UO-31,85.7 µM (inactive)
same,GI50,XF498,> 100 µM (inactive)
Cc1cc(C)nc(Nc2nc3cc([N+](=O)[O-])ccc3[nH]2)n1,GI50,786-0,> 100 µM (inactive)
same,GI50,A498,> 100 µM (inactive)
same,GI50,A549,> 100 µM (inactive)
same,GI50,ACHN,> 100 µM (inactive)
same,GI50,CAKI-1,> 100 µM (inactive)
same,GI50,CCRF-CEM,> 100 µM (inactive)
same,GI50,COLO 205,> 100 µM (inactive)
same,GI50,DLD-1,> 100 µM (inactive)
same,GI50,DMS-114,> 100 µM (inactive)
same,GI50,DMS-273,> 100 µM (inactive)
same,GI50,EKVX,> 100 µM (inactive)
same,GI50,HCC 2998,> 100 µM (inactive)
same,GI50,HCT-116,> 100 µM (inactive)
same,GI50,HCT-15,> 100 µM
same,GI50,HL-60,> 100 µM (inactive)
same,GI50,HOP-62,> 100 µM (inactive)
same,GI50,HOP-92,31.1 µM (inactive)
same,GI50,HT-29,> 100 µM (inactive)
same,GI50,IGROV-1,> 100 µM (inactive)
same,GI50,K562,> 100 µM (inactive)
same,GI50,KM-20L2,> 100 µM (inactive)
same,GI50,KM12,> 100 µM (inactive)
same,GI50,LOX IMVI,> 100 µM (inactive)
same,GI50,LXFL 529,> 100 µM (inactive)
same,GI50,M14,> 100 µM (inactive)
same,GI50,MOLT-4,> 100 µM (inactive)
same,GI50,Malme-3M,> 100 µM (inactive)
same,GI50,NCI-H226,> 100 µM (inactive)
same,GI50,NCI-H23,> 100 µM (inactive)
same,GI50,NCI-H460,> 100 µM (inactive)
same,GI50,NCI-H522,> 100 µM (inactive)
same,GI50,OVCAR-3,> 100 µM (inactive)
same,GI50,OVCAR-4,> 100 µM (inactive)
same,GI50,OVCAR-5,> 100 µM (inactive)
same,GI50,OVCAR-8,> 100 µM (inactive)
same,GI50,RPMI-8226,> 100 µM (inactive)
same,GI50,SF-268,> 100 µM (inactive)
same,GI50,SF-295,> 100 µM (inactive)
same,GI50,SF-539,> 100 µM (inactive)
same,GI50,SK-MEL-28,> 100 µM (inactive)
same,GI50,SK-MEL-2,> 100 µM (inactive)
same,GI50,SK-MEL-5,> 100 µM (inactive)
same,GI50,SN12C,> 100 µM (inactive)
same,GI50,SNB-19,> 100 µM (inactive)
same,GI50,SNB-78,> 100 µM (inactive)
same,GI50,SR,> 100 µM (inactive)
same,GI50,SW-620,> 100 µM (inactive)
same,GI50,TK-10,> 100 µM (inactive)
same,GI50,U-251,> 100 µM (inactive)
same,GI50,UACC-257,> 100 µM (inactive)
same,GI50,UACC-62,> 100 µM (inactive)
same,GI50,UO-31,> 100 µM (inactive)
same,GI50,XF498,> 100 µM (inactive)
